Blank lines part the entries; values can stand above or below the compound they belong to.
Columns and labels:
[1] = Quantum yield estimation by laser flash irradiation (347 nm); assay type: physicochemical
Method: Quantum yield estimation for 10. A solution of 1-(2-nitrophenylethyl) phosphate and 10 (each 0.50 mM) together with dithiothreitol (5 mM) was prepared in 25 mM ammonium phosphate, pH 7.0. Aliquots of the solution ([…]) in a 1-mm path length cell were each subjected to one 50-ns flash from a frequency-doubled ruby laser, that delivered 347 nm light with an average energy of 90 mJ (range 83-104 mJ). The combined irradiated solutions were analyzed by reverse-phase HPLC (mobile phase 25 mM Na phosphate, pH 6.0+40% MeOH, 1.5 ml/min). Retention times were 4.2 and 7.2 min for 10 and 1-(2-nitrophenylethyl) phosphate respectively. Quantification was based on peak heights compared to those of the unphotolyzed control. Extinction coefficients at 347 nm used to calculate the relative quantum yields were 2720 and 510 M^−1cm^−1 for 10 and 1-(2-nitrophenylethyl) phosphate respectively. Photolysis and product analysis for compounds 10 and 18.
The product quantum yield (Qp) for photolysis of the glutamate derivative 10 was determined by laser flash irradiation (347 nm) of a solution containing 10 and 1-(2-nitrophenyl)ethyl phosphate (16) (both 0.5 mM in pH 7 phosphate buffer). Conversions by a single flash (˜90 mJ) were 9.7 and 23% respectively (reverse-phase HPLC), leading to Qp=0.043 by comparison with the known value (16) (0.54) for the caged phosphate and after correction for the different extinction coefficients at the irradiation wavelength. Although the value of Qp is low, the relatively high extinction coefficient at ˜350 nm (˜2700 M^−1cm^−1) compared to that of “classical” 2-nitrobenzyl-type caged compounds (˜600 M^−1cm^−1) enables similar photolytic efficiency to be achieved.

[2] = literature value (16); cited from earlier work
[3] = Hydrolytic stability of 1-acyl-7-nitroindolines (reverse-phase HPLC); assay type: physicochemical; details: 62.5 mM Na phosphate, pH 12.01, 30° C.
Method: The extent of hydrolysis was determined by reverse-phase HPLC analysis (mobile phase 25 mM Na phosphate, pH 6.0+10% MeOH, 1.5 ml/min). […] Quantification was based on peak heights compared to those of unhydrolysed controls (to). First-order rate constants for hydrolysis were obtained from single exponential fits to the data.
In addition to the release rate of the bioeffector species following flash irradiation, important properties of any caged compound include stability in aqueous solution and its extent of photolysis upon a single flash irradiation.
In this context, hydrolytic stability refers to the amide bond. […] The use of the free acids avoided analytical complications from the much faster cleavage of the ester group.

[4] = Flash photolysis with time-resolved IR measurements, carboxylate formation; assay type: physicochemical; details: 1557 cm^−1, 351 nm laser, 9 ns pulse, 25° C., pH 7
Text: (§1) Formation of different products in different solvents requires a change of mechanism and there is some precedent for photoreactivity of nitroaryl compounds in aqueous solution that was not observed in organic solvents. […] Second, we have investigated the kinetics of product formation, specifically of the released proton and carboxylate. […] The latter process may correspond with the slow phase of proton release described above. An overlapping band on the high-frequency side of the main 1553 cm^−1 band makes definitive interpretation of the signals uncertain.

glutamate ion channels = test: Whole-cell patch clamp of cultured rat cerebellar granule neurones, with and without flash photolysis; assay type: cell-based; details: with and without iontophoretic application of L-glutamate
Method: The caged L-glutamate reagent 10 was tested in primary cultures of rat cerebellar granule neurones for its pharmacological actions and ability to effect photolytic activation of glutamate ion channels. All electrophysiological experiments were performed in Mg^2+-free mammalian Ringer's solution containing 100 μM glycine. Cells were voltage clamped at −65 mV with whole-cell patch clamp (17) and the glutamate sensitivity was established by responses to 20 ms pulses of L-glutamate, applied at a frequency of 0.25 Hz by iontophoresis from a 1-μm tipped glass pipette. […] The latter most likely arises from glutamate diffusion away from the photolyzed region. The time course of the initial decline may represent desensitization of non-NMDA glutamate channels.
During the slow decline there was a clear increase in the low frequency noise of the glutamate-activated current compared to baseline, consistent with gating of glutamate-activated ion channels.

[5] = Water solubility (stated in words); assay type: physicochemical
[6] = pH 7,21° C.; cited from earlier work
[7] = Relative photolysis efficiencies of 8 and 11 (xenon arc lamp, HPLC); assay type: physicochemical; details: after 2 min irradiation, 0.5 mM each, 25 mM Na phosphate pH 7.0, 100 W xenon arc lamp
Method: Relative photolysis efficiencies of 8 and 11. A solution containing both 8 and 11 (each 0.5 mM) in 25 mM Na phosphate, pH 7.0 was irradiated in a 1-mm path length cell using light from a 100 W xenon arc lamp which passed through Hoya 340 and Schott WG 305 filters before. illuminating the cell. The extent of photolysis of each compound was determined by reverse-phase HPLC analysis (mobile phase 10 mM Na phosphate, pH 6.0+50% MeOH, 1.5 mL/min). Retention times for 8 and 11 were 3.8 and 7.8 min respectively. After 2 min irradiation, the extents of conversion for compounds 8 and 11 were 40 and 16% respectively.
(§2) Upon comparative photolysis of the 1-glutaryl derivatives 8 and 11 in aqueous solutions at pH 7 and without excluding atmospheric oxygen, the bromo compound 11 was indeed converted ˜2.5-fold less efficiently than 8. Photolysis of 8 proceeded cleanly, as shown by an isosbestic point at 365 nm in spectra of a solution photolyzed for increasing times to at least 65% conversion, but the photoproduct of the protecting group was not the 7-nitroindoline 12 (λmax 450 nm) expected from the previous report (6a). […] Further confirmation of the presence of a nitroso group was that treatment of 13, R=CH2CO2Me) with a thiol readily abolished the 412 nm chromophore, presumably by conversion to the corresponding hydroxylamine (11, 12). […] In control experiments, photolysis of the glutaryl compound 8 in CH2Cl2-dioxane-H2O (2:3:0.05) cleanly gave the expected (6a) nitroindoline 12.

[8] = Flash photolysis with time-resolved UV-VIS absorption spectroscopy, proton release (pH indicator); assay type: physicochemical; details: 320 nm laser, 1 ms pulse, 20° C.
Text: as §1

[9] = Analytical photolysis of 8 in organic and aqueous solvents; assay type: physicochemical; details: CH2Cl2-dioxane-H2O mixture vs aqueous solution, equimolar solutions
Method: Analytical photolysis of 8 in organic and aqueous solvents. Solutions (˜[…]) of 8 in either CH2Cl2-dioxane-H2O (2:3:0.05) or 25 mM Na phosphate, pH 7.0 were irradiated in air for times between 0 and 16 min in a 1-cm path length cell with light from a 100 W xenon arc lamp, filtered through a Hoya 340 filter.
as §2

Conversion by a single flash ([1]; 347 nm laser flash, ~90 mJ, 0.5 mM, pH 7 phosphate buffer): 23%
Extinction coefficient at 347 nm ([1]; used to calculate relative quantum yields): 510 M⁻¹ cm⁻¹
Compound: CC(OP(=O)(O)O)c1ccccc1[N+](=O)[O-] (stereo not drawn) [1-(2-nitrophenylethyl) phosphate, 1-(2-Nitrophenylethyl) phosphate, reference compound]
Product quantum yield, known value [2]: 0.54

Half-times for hydrolysis (amide hydrolysis) [3]: 29 h
Water solubility [5]: highly water-soluble
Compound: COC(=O)Cc1cc2c(c([N+](=O)[O-])c1)N(C(=O)CCCCOP(=O)(O)O)CC2 [Compound 9]
Carboxylate formation, exponential rate of major component [4]: ~2700 s⁻¹
Carboxylate formation, exponential rate of minor component [4]: ~10 s⁻¹
Carboxylate formation, major component share of absorption increase [4]: ~80%
Effect of the caged compound before, during and after photolysis (glutamate ion channels): no effect

Compound: N-carboxyglutamate
Decarboxylation rate k [6]: ~150 s⁻¹

Extent of conversion (photolysis) [7]: 40%
Fold more efficient photolysis in organic solvent than in water [9]: at least 2 fold
Compound: COC(=O)Cc1cc2c(c([N+](=O)[O-])c1)N(C(=O)CCCC(=O)O)CC2 [Compound 8, Methyl 1-glutaryl-7-nitroindoline-5-acetate]
Proton release, rate of smaller component ([8]; pH 7): ~9 s⁻¹
Proton release, time course of major component ([8]; pH 7): complete within the laser pulse
Proton release, major component share of signal ([8]; pH 7, Bromothymol Blue): ~85%

— patent US6765014B1, “1-Acyl-7-nitroindoline derivatives, their preparation and their use as photocleavable precursors” (Medical Research Council, priority 1999, dated 2004)
